Test system: 126254-015-R-J1-PDC complex spheroid growth, % test/control
Experiment: Anticancer human tumor 126254-015-R-J1-PDC patient-derived soft tissue sarcoma cell line growth inhibition [Asc]
Conditions: for IC50: curve of first compound; for viability, T/C: stronger effect = lower value
In short: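 Stromal components (HUVEC and hMSC) are co-assembled with the cancer cells into multicellular spheroids. Drugs are then added singly or paired, at concentrations falling by half-log increments from a clinically achievable maximum, capped at 10 microM without known Cmax.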
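Note: spheroids exposed to compound for seven days.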
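Throughout, for viability, T/C: 100% = DMSO vehicle control wells.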

**Q.** Which IC50 (second compound 0.1 µM) does the source give for `Cn1ncnc1[C@H]1c2n[nH]c(=O)c3cc(F)cc(c23)N[C@@H]1c1ccc(F)cc1` + Cc1c(S(C)(=O)=O)c(-c2cc(F)cc(N3CCN(c4ccc(NS(=O)(=O)c5ccc(NC(CCN6CCC(C(=O)OCCCP(=O)(O)O)CC6)CSc6ccccc6)c(S(=O)(=O)C(F)(F)F)c5)cc4)CC3)c2)c(-c2ccc(Cl)cc2)n1C(C)C here?
**A.** Its IC50 is > 100 nM.

**Q.** What about the IC50 (second compound 0.316 µM) of the same compound?
**A.** Its IC50 is > 100 nM.

**Q.** And the IC50 (second compound 1 µM)?
**A.** Its IC50 is > 100 nM.

**Q.** What about the IC50 (second compound 3.16 µM) of the same compound?
**A.** The IC50 was > 100 nM.

**Q.** What about the IC50 (second compound 10 µM) of the same compound?
**A.** The IC50 was 99.3 nM.

**Q.** What about the viability, T/C (second compound 0.1 µM, first compound 0.000316 µM) of the same compound?
**A.** The viability, T/C was 90.6%.

**Q.** And the viability, T/C (second compound 0.1 µM, first compound 0.001 µM)?
**A.** Its viability, T/C is 89.9%.

**Q.** What about the viability, T/C (second compound 0.1 µM, first compound 0.00316 µM) of the same compound?
**A.** Its viability, T/C is 82.1%.

**Q.** What about the viability, T/C (second compound 0.1 µM, first compound 0.01 µM) of the same compound?
**A.** The viability, T/C was 73.9%.

**Q.** What about the viability, T/C (second compound 0.1 µM, first compound 0.0316 µM) of the same compound?
**A.** The viability, T/C was 76.9%.

**Q.** And the viability, T/C (second compound 0.1 µM, first compound 0.1 µM)?
**A.** The viability, T/C was 65.2%.

**Q.** What about the viability, T/C (second compound 0.316 µM, first compound 0.000316 µM) of the same compound?
**A.** The viability, T/C was 87.7%.

**Q.** What about the viability, T/C (second compound 0.316 µM, first compound 0.001 µM) of the same compound?
**A.** The viability, T/C was 79%.

**Q.** And the viability, T/C (second compound 0.316 µM, first compound 0.00316 µM)?
**A.** Its viability, T/C is 71.6%.

**Q.** And the viability, T/C (second compound 0.316 µM, first compound 0.01 µM)?
**A.** The viability, T/C was 69.2%.

**Q.** And the viability, T/C (second compound 0.316 µM, first compound 0.0316 µM)?
**A.** The viability, T/C was 69.7%.

**Q.** What about the viability, T/C (second compound 0.316 µM, first compound 0.1 µM) of the same compound?
**A.** The viability, T/C was 58.5%.

**Q.** And the viability, T/C (second compound 1 µM, first compound 0.000316 µM)?
**A.** The viability, T/C was 79%.

**Q.** What about the viability, T/C (second compound 1 µM, first compound 0.001 µM) of the same compound?
**A.** Its viability, T/C is 85.1%.

**Q.** And the viability, T/C (second compound 1 µM, first compound 0.00316 µM)?
**A.** The viability, T/C was 78.4%.

**Q.** What about the viability, T/C (second compound 1 µM, first compound 0.01 µM) of the same compound?
**A.** Its viability, T/C is 63.9%.

**Q.** And the viability, T/C (second compound 1 µM, first compound 0.0316 µM)?
**A.** Its viability, T/C is 64%.

**Q.** What about the viability, T/C (second compound 1 µM, first compound 0.1 µM) of the same compound?
**A.** Its viability, T/C is 61.6%.

**Q.** And the viability, T/C (second compound 3.16 µM, first compound 0.000316 µM)?
**A.** The viability, T/C was 83.4%.

**Q.** And the viability, T/C (second compound 3.16 µM, first compound 0.001 µM)?
**A.** The viability, T/C was 68%.

**Q.** What about the viability, T/C (second compound 3.16 µM, first compound 0.00316 µM) of the same compound?
**A.** Its viability, T/C is 70.3%.

**Q.** And the viability, T/C (second compound 3.16 µM, first compound 0.01 µM)?
**A.** Its viability, T/C is 61%.

**Q.** And the viability, T/C (second compound 3.16 µM, first compound 0.0316 µM)?
**A.** Its viability, T/C is 57.5%.

**Q.** What about the viability, T/C (second compound 3.16 µM, first compound 0.1 µM) of the same compound?
**A.** The viability, T/C was 55%.

**Q.** What about the viability, T/C (second compound 10 µM, first compound 0.000316 µM) of the same compound?
**A.** The viability, T/C was 82%.

**Q.** What about the viability, T/C (second compound 10 µM, first compound 0.001 µM) of the same compound?
**A.** Its viability, T/C is 72%.

**Q.** And the viability, T/C (second compound 10 µM, first compound 0.00316 µM)?
**A.** Its viability, T/C is 77.7%.

**Q.** What about the viability, T/C (second compound 10 µM, first compound 0.01 µM) of the same compound?
**A.** The viability, T/C was 68.7%.

**Q.** And the viability, T/C (second compound 10 µM, first compound 0.0316 µM)?
**A.** The viability, T/C was 55.2%.

**Q.** What about the viability, T/C (second compound 10 µM, first compound 0.1 µM) of the same compound?
**A.** Its viability, T/C is 50%.

— PubChem BioAssay AID1963429 (Molecular Pharmacology Branch, DTP, NCI, 2024)
